pIC50: −log10 of the molar value. Read-outs that look alike come from different tables or passages of the source.
Assays:
ETB receptors = biological target: T1, ETB receptors (Rattus norvegicus, UniProt P21451); test: Inhibition of sarafotoxin S6c-induced contractions on isolated rat tracheal rings; format: cell-based
T1 construct: The thoracic aorta or trachea were excised, dissected and cut in 3-5 mm rings; from tissue; host or cells: tracheal rings of adult Wistar rats, epithelium removed
T1 sequence (P21451 27-442): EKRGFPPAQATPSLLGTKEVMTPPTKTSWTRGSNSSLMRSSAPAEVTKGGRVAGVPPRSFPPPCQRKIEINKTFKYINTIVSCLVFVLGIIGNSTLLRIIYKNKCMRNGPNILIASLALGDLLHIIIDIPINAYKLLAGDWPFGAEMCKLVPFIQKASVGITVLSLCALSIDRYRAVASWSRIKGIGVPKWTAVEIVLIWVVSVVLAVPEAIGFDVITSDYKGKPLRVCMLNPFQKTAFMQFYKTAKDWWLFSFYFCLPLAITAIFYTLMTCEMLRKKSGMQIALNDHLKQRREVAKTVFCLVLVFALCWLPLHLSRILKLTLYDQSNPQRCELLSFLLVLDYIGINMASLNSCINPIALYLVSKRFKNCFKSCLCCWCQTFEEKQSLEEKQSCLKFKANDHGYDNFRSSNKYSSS
Experimental: (§1) 2) Inhibition of Endothelin-Induced Contractions on Isolated Rat Aortic Rings (ETA Receptors) and Rat Tracheal Rings (ETB Receptors):
(§2) Adult Wistar rats were anesthetized and exsanguinated. The thoracic aorta or trachea were excised, dissected and cut in 3-5 mm rings. The endothelium/epithelium was removed by gentle rubbing of the intimal surface. Each ring was suspended in a 10 ml isolated organ bath filled with Krebs-Henseleit solution (in mM; NaCl 115, KCl 4.7, MgSO4 1.2, KH2PO4 1.5, NaHCO3 25, CaCl2 2.5, glucose 10) kept at 37° and gassed with 95% O2 and 5% CO2. The rings were connected to force transducers and isometric tension was recorded (EMKA Technologies SA, Paris, France). The rings were stretched to a resting tension of 3 g (aorta) or 2 g (trachea). […] The functional inhibitory potency of the test compound was assessed by calculating the concentration ratio, i.e. the shift to the right of the EC50 induced by different concentrations of test compound. EC50 is the concentration of endothelin needed to get a half-maximal contraction, pA2 is the negative logarithm of the antagonist concentration which induces a two-fold shift in the EC50 value.

ETA receptors = biological target: T2, ETA receptors (Rattus norvegicus, UniProt P26684); test: Inhibition of endothelin-1-induced contractions on isolated rat aortic rings; format: cell-based
T2 construct: The thoracic aorta or trachea were excised, dissected and cut in 3-5 mm rings; from tissue; host or cells: thoracic aorta rings of adult Wistar rats, endothelium removed
T2 sequence (P26684 21-426): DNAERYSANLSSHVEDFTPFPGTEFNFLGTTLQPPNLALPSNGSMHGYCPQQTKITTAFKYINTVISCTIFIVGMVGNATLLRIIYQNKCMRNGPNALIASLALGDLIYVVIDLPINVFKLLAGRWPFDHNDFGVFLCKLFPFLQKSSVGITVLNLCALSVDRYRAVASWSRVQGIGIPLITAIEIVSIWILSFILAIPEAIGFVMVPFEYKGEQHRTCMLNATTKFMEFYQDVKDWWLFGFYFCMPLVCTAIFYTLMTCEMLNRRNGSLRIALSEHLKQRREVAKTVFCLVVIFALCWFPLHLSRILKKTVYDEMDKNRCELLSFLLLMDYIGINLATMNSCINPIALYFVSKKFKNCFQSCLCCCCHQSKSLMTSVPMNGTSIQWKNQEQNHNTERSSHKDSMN
Experimental: as §1, §2

[1] = biological target: T3, human recombinant ETA receptors (Homo sapiens, UniProt P25101); test: Inhibition of [125I]ET-1 binding to membranes from CHO cells carrying human ETA receptors; conditions: CHO cell membranes, 8 pM [125I]ET-1, 2 h at 20° C.
T3 construct: expressed in transfected cells; host or cells: CHO cells (microsomal membranes)
T3 sequence (P25101 21-427): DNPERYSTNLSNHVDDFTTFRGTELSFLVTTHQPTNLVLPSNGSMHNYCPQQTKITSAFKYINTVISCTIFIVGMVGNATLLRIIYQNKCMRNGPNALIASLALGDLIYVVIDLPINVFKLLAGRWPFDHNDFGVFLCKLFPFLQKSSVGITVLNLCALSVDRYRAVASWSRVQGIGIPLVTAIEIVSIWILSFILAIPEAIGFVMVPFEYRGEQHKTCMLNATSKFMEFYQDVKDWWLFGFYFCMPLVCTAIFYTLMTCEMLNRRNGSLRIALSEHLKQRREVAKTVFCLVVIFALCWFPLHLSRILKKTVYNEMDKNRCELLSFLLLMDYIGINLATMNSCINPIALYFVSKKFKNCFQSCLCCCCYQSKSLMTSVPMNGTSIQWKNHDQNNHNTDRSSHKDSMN
Experimental: (§3) 1) Inhibition of Endothelin Binding to Membranes from CHO Cells Carrying Human ET Receptors
(§4) For competition binding studies, membranes of CHO cells expressing human recombinant ETA or ETB receptors were used. Microsomal membranes from recombinant CHO cells were prepared and the binding assay made as previously described (Breu V., et al, FEBS Lett 1993; 334:210).
(§5) The assay was performed in 200 uL 50 mM Tris/HCl buffer, pH 7.4, including 25 mM MnCl2, 1 mM EDTA and 0.5% (w/v) BSA in polypropylene microtiter plates. […] After 2 h, the membranes were filtered on filterplates containing GF/C filters (Unifilterplates from Canberra Packard S.A. Zürich, Switzerland). To each well, 50 uL of scintillation cocktail was added (MicroScint 20, Canberra Packard S.A. Zürich, Switzerland) and the filter plates counted in a microplate counter (TopCount, Canberra Packard S.A. Zürich, Switzerland).
(§6) All the test compounds were dissolved, diluted and added in DMSO.

[2] = biological target: T4, human recombinant ETB receptors (Homo sapiens, UniProt P24530); test: Inhibition of [125I]ET-1 binding to membranes from CHO cells carrying human ETB receptors
T4 construct: expressed in transfected cells; host or cells: CHO cells (microsomal membranes)
T4 sequence (P24530 27-442): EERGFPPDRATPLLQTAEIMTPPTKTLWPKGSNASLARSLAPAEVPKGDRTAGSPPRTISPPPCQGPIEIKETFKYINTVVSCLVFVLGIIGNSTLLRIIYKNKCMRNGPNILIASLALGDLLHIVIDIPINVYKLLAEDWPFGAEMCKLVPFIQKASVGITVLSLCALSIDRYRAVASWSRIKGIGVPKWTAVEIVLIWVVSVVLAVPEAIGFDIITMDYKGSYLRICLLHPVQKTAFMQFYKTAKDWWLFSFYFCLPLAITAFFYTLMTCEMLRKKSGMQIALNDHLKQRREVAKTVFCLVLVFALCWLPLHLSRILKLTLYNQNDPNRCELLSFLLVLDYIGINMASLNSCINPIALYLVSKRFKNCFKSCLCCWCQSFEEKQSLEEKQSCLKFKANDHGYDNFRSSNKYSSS
Experimental: as §3, §4, §5, §6

[3] = read-out: pA2 value ETA (converted)

Structure (SMILES)	Kb (ETB receptors)	Kb (ETA receptors; [3])	pIC50 [1]	pIC50 [2]	Kb (ETA receptors)
COc1ccccc1Oc1c(NS(=O)(=O)/C=C/c2ccccc2)ncnc1OCCOc1ncc(Br)cn1 [Example 211]	224 nM	24.5 nM	7.42	5.58	
COc1ccccc1Oc1c(NS(=O)(=O)/C=C/c2ccccc2)nc(-c2ncccn2)nc1OCCOc1ncccn1 [Example 152]	912 nM	20.4 nM	7.36	5.32	
COc1ccccc1Oc1c(NS(=O)(=O)/C=C/c2ccccc2)nc(N2CCOCC2)nc1OCCOc1ncc(Br)cn1 [Example 193]	126 nM	2.51 nM	8.59	6.27	
COc1ccccc1Oc1c(NS(=O)(=O)/C=C/c2ccccc2)nc(N2CCOCC2)nc1OCCOc1ncc(Cl)cn1 [Example 195]		9.12 nM	8.22	6.53	
Cc1ccc(-c2c(NS(=O)(=O)/C=C/c3ccccc3)ncnc2OCCOc2ncc(Cl)cn2)cc1 [Example 14]		2.14 nM	8.32	6.08	
COc1ccccc1Oc1c(NS(=O)(=O)/C=C/c2ccccc2)nc(N2CCOCC2)nc1OCCOc1ncccn1 [Example 194]	316 nM	31.6 nM	8.11	6.20	
Cc1ccc(-c2c(NS(=O)(=O)/C=C/c3ccccc3)ncnc2OCCOc2ncc(Br)cn2)cc1 [Example 1, 2-phenyl-ethenesulfonic acid {6-[2-(5-bromo-pyrimidin-2-yloxy)-ethoxy]-5-p-tolyl-pyrimidin-4-yl}-amide]	81.3 nM		8.74	6.24	1.86 nM
COc1ccccc1Oc1c(NS(=O)(=O)/C=C/c2cccs2)nc(-c2ccncc2)nc1OCCOc1ncc(Br)cn1 [Example 173]	79.4 nM	1.48 nM	8.38	6.01	
COc1ccccc1Oc1c(NS(=O)(=O)/C=C/c2ccccc2)nc(N2CCOCC2)nc1OCCOc1ncc(F)cn1 [Example 196]		20.9 nM	8.33	6.37	
Cc1ccc(-c2c(NS(=O)(=O)/C=C/c3ccccc3)nc(-c3ccncc3)nc2OCCOc2ncc(Br)cn2)cc1 [Example 80]	6170 nM	4.47 nM	7.71	5.59	
COc1ccccc1Oc1c(NS(=O)(=O)/C=C/c2cccs2)nc(-c2ccncc2)nc1OCCOc1ncccn1 [Example 174]		13.2 nM	8.17	6.00	
O=S(=O)(/C=C/c1ccccc1)Nc1ncnc(OCCOc2ncc(Br)cn2)c1-c1ccc(Br)cc1 [Example 85]		0.851 nM	8.42	6.62	
Cc1ccc(-c2c(NS(=O)(=O)/C=C/c3cccs3)ncnc2OCCOc2ncc(Br)cn2)cc1 [Example 67]		0.316 nM	8.11	6.12	
O=S(=O)(/C=C/c1ccccc1)Nc1ncnc(OCCOc2ncc(Br)cn2)c1-c1ccc(Cl)cc1 [Example 43]		0.851 nM	8.34	6.39	
Cc1ccc(-c2c(NS(=O)(=O)/C=C/c3ccccc3)ncnc2OCCOc2ncc(F)cn2)cc1 [Example 15]		26.9 nM	7.75	5.67	
Cc1ccc(-c2c(NS(=O)(=O)/C=C/c3ccccc3)nc(-c3ncccn3)nc2OCCOc2ncc(Br)cn2)cc1 [Example 140]		1.86 nM	7.90	5.96	
